According to PubChem BioAssay AID330 (DTP/NCI, 2004):
Several values for one entry are separate records, joined by “and”; a condition that tells them apart may be missing. Equal values may be shown once. Toxic doses and inconclusive results are not listed.

Tested on: P388 leukemia ip, CD2F1 mice, survival T/C
Test: NCI In Vivo Anticancer Drug Screen. Data for tumor model P388 Leukemia (intraperitoneal) in CD2F1 (CDF1) mice
Details: endpoint: median survival time, higher = longer survival
Procedure, shortened: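 Mice carrying the transplanted tumor received test compound or vehicle. Survival was recorded in each group, and the value is the treated-group measurement divided by that of the vehicle-treated control group.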

[1] = dose: 25.0 mg/kg/injection, schedule: Q01DX009 (ip), vehicle: saline
[2] = dose: 50.0 mg/kg/injection, schedule: Q01DX009 (ip), vehicle: saline
[3] = dose: 50.0 mg/kg/injection, schedule: Q01DX009 (ip), vehicle: saline with Tween-80
[4] = dose: 100.0 mg/kg/injection, schedule: Q01DX009 (ip), vehicle: saline with Tween-80
[5] = dose: 200.0 mg/kg/injection, schedule: Q01DX009 (ip), vehicle: saline with Tween-80
[6] = dose: 100.0 mg/kg/injection, schedule: Q01DX009 (ip), vehicle: saline
[7] = dose: 200.0 mg/kg/injection, schedule: Q01DX009 (ip), vehicle: saline
[8] = dose: 60.0 mg/kg/injection, schedule: Q01DX005 (ip), vehicle: saline with Tween-80
[9] = dose: 120.0 mg/kg/injection, schedule: Q01DX005 (ip), vehicle: saline with Tween-80
[10] = dose: 50.0 mg/kg/injection, schedule: Q01DX005 (ip), vehicle: saline with Tween-80
[11] = dose: 100.0 mg/kg/injection, schedule: Q01DX005 (ip), vehicle: saline with Tween-80
[12] = dose: 200.0 mg/kg/injection, schedule: Q01DX005 (ip), vehicle: saline with Tween-80
[13] = dose: 12.5 mg/kg/injection, schedule: Q01DX009 (ip), vehicle: saline with Tween-80
[14] = dose: 25.0 mg/kg/injection, schedule: Q01DX009 (ip), vehicle: saline with Tween-80
[15] = dose: 100.0 mg/kg/injection, schedule: Q04DX003 (ip), vehicle: saline with Tween-80
[16] = dose: 200.0 mg/kg/injection, schedule: Q04DX003 (ip), vehicle: saline with Tween-80
[17] = dose: 50.0 mg/kg/injection, schedule: Q01DX005 (ip), vehicle: Klucel (hydroxypropylcellulose) (HPC)
[18] = dose: 100.0 mg/kg/injection, schedule: Q01DX005 (ip), vehicle: Klucel (hydroxypropylcellulose) (HPC)
[19] = dose: 400.0 mg/kg/injection, schedule: Q04DX003 (ip), vehicle: saline with Tween-80
[20] = dose: 200.0 mg/kg/injection, schedule: Q01DX005 (ip), vehicle: Klucel (hydroxypropylcellulose) (HPC)
[21] = dose: 240.0 mg/kg/injection, schedule: Q01DX005 (ip), vehicle: saline with Tween-80

In the case of OCCN(CCO)c1nc(N(CCO)CCO)c(N2CCCCC2)c(N2CCCCC2)n1, the T/C (dose: 100.0 mg/kg/injection, schedule: Q04DX002 (ip), vehicle: saline) is reported as 104 % of control, the T/C (dose: 200.0 mg/kg/injection, schedule: Q04DX002 (ip), vehicle: saline) is reported as 105 % of control and the T/C (dose: 400.0 mg/kg/injection, schedule: Q04DX002 (ip), vehicle: saline) is reported as 98 % of control.
For CN(C)CCC(=O)/C=C\c1ccccc1, the T/C [1] was 107 % of control and the T/C [2] was 108 % of control.
Cc1cccc(N(CCO)CCC#N)c1 was tested, and the T/C (dose: 50.0 mg/kg/injection, schedule: Q01DX005 (ip), vehicle: distilled water + Tween-80 + alcohol) was 102 % of control, the T/C (dose: 100.0 mg/kg/injection, schedule: Q01DX005 (ip), vehicle: distilled water + Tween-80 + alcohol) was 101 % of control and the T/C (dose: 200.0 mg/kg/injection, schedule: Q01DX005 (ip), vehicle: distilled water + Tween-80 + alcohol) was 94 % of control.
In the case of CCCCCCCCCCCC(=O)N(CCOC(=O)c1ccccc1)CCc1ccccc1, the T/C [3] is reported as 109 % of control, the T/C [4] is reported as 109 % of control and the T/C [5] is reported as 116 % of control.
O=C(O)C1CSC2(CCCCC2)N1 (configuration not stated) was tested, and the T/C (dose: 50.0 mg/kg/injection, schedule: Q04DX003 (ip), vehicle: saline) was 104 % of control, the T/C (dose: 100.0 mg/kg/injection, schedule: Q04DX003 (ip), vehicle: saline) was 95 % of control and the T/C (dose: 200.0 mg/kg/injection, schedule: Q04DX003 (ip), vehicle: saline) was 99 % of control. The T/C (dose: 400.0 mg/kg/injection, schedule: Q04DX003 (ip), vehicle: saline) was 96 % of control.
For O=C(NC1CCCCC1)N1CCCC1, the T/C [2] was 99 % of control, the T/C [4] was 91 % of control and the T/C [6] was 95 % of control. The T/C [5] was 86 % of control and the T/C [7] was 102 % of control.
In the case of COc1ccc(/C=C/c2ccnnc2)cc1, the T/C [2] is reported as 99 % of control and 102 % of control, the T/C [6] is reported as 108 % of control and the T/C [7] is reported as 99 % of control and 94 % of control.
COc1ccccc1C(Nc1nncs1)Nc1nncs1 was tested, and the T/C [8] was 106 % of control and the T/C [9] was 97 % of control.
For CC1(C)CCC2(C)N(c3ccccc3)C(=O)ON12 (configuration not stated), the T/C [10] was 102 % of control, the T/C [11] was 100 % of control and the T/C [12] was 99 % of control.
With CN(C)CCSc1sc(N)nc1-c1ccccc1 the T/C [2] was 100 % of control, the T/C [6] was 98 % of control and the T/C [7] was 114 % of control.
Cc1ccc(NCCN(C)C)c2c(=O)c3cccc(O)c3sc12 was tested, and the T/C [3] was 100 % of control, the T/C [4] was 95 % of control and the T/C [5] was 97 % of control.
In the case of Cc1ccc(C(O)(CS(C)=O)c2ccco2)cc1 (configuration not stated), the T/C [13] is reported as 100 % of control, the T/C [14] is reported as 100 % of control and the T/C [3] is reported as 100 % of control.
With C=CCc1ccccc1C the T/C [4] was 109 % of control and the T/C [5] was 101 % of control.
With COc1ccc(C(=O)C(=O)c2ccc(OC)c(OC)c2)cc1OC the T/C [4] was 96 % of control, the T/C [5] was 96 % of control and the T/C (dose: 400.0 mg/kg/injection, schedule: Q01DX009 (ip), vehicle: saline with Tween-80) was 92 % of control.
With N#CC(C#N)=CNc1ccccc1 the T/C [3] was 100 % of control, the T/C [4] was 106 % of control and the T/C [5] was 104 % of control.
With COc1cc(C=Nc2cc(Cl)cc(Cl)c2)ccc1N(CCCl)CCCl the T/C [15] was 159 % of control and 172 % of control, the T/C [16] was 181 % of control and 222 % of control and the T/C (dose: 300.0 mg/kg/injection, schedule: Q04DX003 (ip), vehicle: saline with Tween-80) was 204 % of control.
For ON(C=S)c1ccccc1, the T/C [10] was 102 % of control, the T/C [11] was 105 % of control and the T/C [12] was 97 % of control.
For C1CN1CN1CC1, the T/C [17] was 102 % of control and the T/C [18] was 99 % of control.
For NCCCNCCSP(=O)(O)O, the T/C [13] was 106 % of control, the T/C (dose: 12.5 mg/kg/injection, schedule: Q01DX009 (ip), vehicle: saline) was 108 % of control and the T/C [14] was 104 % of control. The T/C [1] was 100 % of control and 104 % of control, the T/C [3] was 95 % of control and the T/C [2] was 103 % of control and 109 % of control. For the same molecule, the T/C [6] was 104 % of control and 87 % of control, the T/C [5] was 106 % of control and the T/C [7] was 112 % of control.
For S=c1nc[nH]c2c1ncn2C1CCCC1, the T/C [15] was 104 % of control, the T/C [16] was 104 % of control and the T/C [19] was 90 % of control.
With CCC1=C[C@H]2CN(CCc3c([nH]c4ccccc34)[C@@](C(=O)OC)(c3cc4c(cc3OC)N(C=O)[C@H]3[C@@](O)(C(=O)OC)[C@H](OC(C)=O)[C@]5(CC)C=CCN6CC[C@]43[C@@H]65)C2)C1 the T/C (dose: 0.13 mg/kg/injection, schedule: Q01DX001 (ip), vehicle: water) was 99 % of control, the T/C (dose: 0.25 mg/kg/injection, schedule: Q01DX001 (ip), vehicle: water) was 100 % of control and the T/C (dose: 0.5 mg/kg/injection, schedule: Q01DX001 (ip), vehicle: water) was 116 % of control.
In the case of Cc1cccc(Nc2nc(C)nc3[nH]c(Cc4ccccc4)c(C)c23)c1, the T/C [17] is reported as 86 % of control, the T/C [18] is reported as 86 % of control and the T/C [20] is reported as 88 % of control.
For CCOC(=O)c1ccc(NC(=O)NC2=NCCS2)cc1, the T/C (dose: 12.5 mg/kg/injection, schedule: Q01DX009 (ip), vehicle: distilled water + Tween-80) was 96 % of control, the T/C (dose: 25.0 mg/kg/injection, schedule: Q01DX009 (ip), vehicle: distilled water + Tween-80) was 93 % of control and the T/C (dose: 50.0 mg/kg/injection, schedule: Q01DX009 (ip), vehicle: distilled water + Tween-80) was 93 % of control. For the same molecule, the T/C (dose: 100.0 mg/kg/injection, schedule: Q01DX009 (ip), vehicle: distilled water + Tween-80) was 96 % of control and the T/C (dose: 200.0 mg/kg/injection, schedule: Q01DX009 (ip), vehicle: distilled water + Tween-80) was 87 % of control.
In the case of COC(=O)C(=O)C1CCc2c(C(=O)OC)nc3[nH]n(-c4ccccc4)c(=O)c3c21 (configuration not stated), the T/C [8] is reported as 111 % of control, the T/C [9] is reported as 94 % of control and the T/C [21] is reported as 88 % of control.
For CCCCCCCCCC(C)(O)C#CC(C)(O)CCCCCCCCC (configuration not stated), the T/C [4] was 87 % of control, the T/C [5] was 95 % of control and the T/C [19] was 86 % of control.
O=C1c2ccccc2C(=O)c2c1ccc(C1C(=O)c3ccccc3C1=O)c2-c1c(C2C(=O)c3ccccc3C2=O)ccc2c1C(=O)c1ccccc1C2=O was tested, and the T/C [8] was 103 % of control, the T/C [9] was 99 % of control and the T/C [21] was 97 % of control.
In the case of CS(=O)(=O)C(c1nc2nnc(NC(=O)Nc3ccc(Cl)cc3)n2[nH]c1=O)c1nc2nnc(NC(=O)Nc3ccc(Cl)cc3)n2[nH]c1=O, the T/C [8] is reported as 104 % of control, the T/C [9] is reported as 100 % of control and the T/C [21] is reported as 98 % of control.
CC(/C=C/C1OC(=O)C=CC1C)=C\C(C)C/C=C/C(C)=C/C(C)C(=O)C(C)C(O)C(C)C/C(C)=C/C(=O)O (configuration not stated) was tested, and the T/C (dose: 2.5 micrograms/kg/injection, schedule: Q01DX005 (ip), vehicle: saline + alcohol) was 101 % of control, the T/C (dose: 5.0 micrograms/kg/injection, schedule: Q01DX005 (ip), vehicle: saline + alcohol) was 99 % of control and the T/C (dose: 10.0 micrograms/kg/injection, schedule: Q01DX005 (ip), vehicle: saline + alcohol) was 106 % of control. For the same molecule, the T/C (dose: 20.0 micrograms/kg/injection, schedule: Q01DX005 (ip), vehicle: saline + alcohol) was 100 % of control, the T/C (dose: 100.0 micrograms/kg/injection, schedule: Q01DX005 (ip), vehicle: alcohol) was 150 % of control and the T/C (dose: 200.0 micrograms/kg/injection, schedule: Q01DX005 (ip), vehicle: alcohol) was 159 % of control.
With CSc1n[nH]c(C2CCC(=O)N2Cc2ccccc2)n1 (configuration not stated) the T/C [10] was 103 % of control, the T/C [11] was 101 % of control and the T/C [12] was 100 % of control.
For CC1(C)CC(O)(CC2CCC34C(=O)OC(C)(CCC3Br)C24)CCC1Br (configuration not stated), the T/C (dose: 5.0 mg/kg/injection, schedule: Q01DX009 (ip), vehicle: Klucel (hydroxypropylcellulose) (HPC)) was 93 % of control, the T/C (dose: 10.0 mg/kg/injection, schedule: Q01DX009 (ip), vehicle: Klucel (hydroxypropylcellulose) (HPC)) was 109 % of control and the T/C (dose: 20.0 mg/kg/injection, schedule: Q01DX009 (ip), vehicle: Klucel (hydroxypropylcellulose) (HPC)) was 100 % of control.
With c1ccc(-c2cn3ccsc3n2)cc1 the T/C (dose: 25.0 mg/kg/injection, schedule: Q01DX009 (ip), vehicle: other) was 109 % of control, the T/C (dose: 50.0 mg/kg/injection, schedule: Q01DX009 (ip), vehicle: other) was 115 % of control and the T/C (dose: 100.0 mg/kg/injection, schedule: Q01DX009 (ip), vehicle: other) was 115 % of control. For the same molecule, the T/C (dose: 200.0 mg/kg/injection, schedule: Q01DX009 (ip), vehicle: other) was 115 % of control.
In the case of CC1(C)CC(Nc2ccccc2)=CC(Nc2ccccc2)=N1, the T/C [17] is reported as 105 % of control, the T/C [18] is reported as 98 % of control and the T/C [20] is reported as 105 % of control.
